Patent publication US9187471B2, “Pyrido [4,3-b] indole and pyrido [3,4-b] indole derivatives and methods of use” (Medivation Technologies, Inc., priority 2010, dated 2015)
Like-named read-outs stand apart in the source and are kept apart here.

Key:
[1] = target: T1, human recombinant adrenergic α2C receptor (Homo sapiens, UniProt P18825); assay: Adrenergic α2C radioligand binding ([3H]MK-912); conditions: read-out: Adrenergic (0.1 μM) a2C, percent inhibition of specific binding; compound at 0.1 μM; 1 nM [3H]MK-912
T1 construct: expressed in transfected cells; host or cells: insect Sf9 cells
T1 sequence (P18825 1-462): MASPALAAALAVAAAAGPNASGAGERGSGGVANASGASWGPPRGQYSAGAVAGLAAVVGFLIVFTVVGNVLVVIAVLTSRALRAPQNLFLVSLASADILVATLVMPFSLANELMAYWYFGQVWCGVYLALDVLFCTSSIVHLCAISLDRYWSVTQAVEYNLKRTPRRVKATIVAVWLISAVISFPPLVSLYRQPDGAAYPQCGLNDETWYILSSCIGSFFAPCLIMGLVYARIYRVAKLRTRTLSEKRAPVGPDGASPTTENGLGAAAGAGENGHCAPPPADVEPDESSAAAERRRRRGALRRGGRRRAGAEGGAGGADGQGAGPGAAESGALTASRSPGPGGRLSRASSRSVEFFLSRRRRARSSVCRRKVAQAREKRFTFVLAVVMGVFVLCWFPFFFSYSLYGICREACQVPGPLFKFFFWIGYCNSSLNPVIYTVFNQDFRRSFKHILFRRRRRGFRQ
Experimental: To evaluate in radioligand binding assays the activity of compounds of the invention, human recombinant adrenergic α2C receptor expressed in insect Sf9 cells (Uhlen, S. et al, J. Pharmacol. Exp. Ther. 271:1558, 1994) in a modified Tris-HCl buffer (50 mM Tris-HCl, pH 7.4, 12.5 mM MgCl2, 2 mM EDTA) was used. Compounds of the invention were incubated with 1 nM [^3H]MK-912 for 60 min at 25° C. Non-specific binding was estimated in the presence of 10 μM WB-4101. Receptor proteins were filtered and washed, the filters were then counted to determine [^3H]MK-912 specifically bound. […] Compounds of the invention were tested in this biochemical assay and percent inhibition of specific binding was determined.

[2] = target: T2, rat adrenergic α1A receptor (Rattus norvegicus, UniProt P43140); assay: Adrenergic α1A radioligand binding ([3H]Prazosin); conditions: read-out: Adrenergic (0.1 μM) a1A, percent inhibition of specific binding; compound at 0.1 μM; 0.25 nM [3H]Prazosin
T2 construct: rat adrenergic α1A receptor obtained from Wistar Rat submaxillary glands; from tissue; host or cells: Wistar rat submaxillary glands
T2 sequence (P43140 1-466): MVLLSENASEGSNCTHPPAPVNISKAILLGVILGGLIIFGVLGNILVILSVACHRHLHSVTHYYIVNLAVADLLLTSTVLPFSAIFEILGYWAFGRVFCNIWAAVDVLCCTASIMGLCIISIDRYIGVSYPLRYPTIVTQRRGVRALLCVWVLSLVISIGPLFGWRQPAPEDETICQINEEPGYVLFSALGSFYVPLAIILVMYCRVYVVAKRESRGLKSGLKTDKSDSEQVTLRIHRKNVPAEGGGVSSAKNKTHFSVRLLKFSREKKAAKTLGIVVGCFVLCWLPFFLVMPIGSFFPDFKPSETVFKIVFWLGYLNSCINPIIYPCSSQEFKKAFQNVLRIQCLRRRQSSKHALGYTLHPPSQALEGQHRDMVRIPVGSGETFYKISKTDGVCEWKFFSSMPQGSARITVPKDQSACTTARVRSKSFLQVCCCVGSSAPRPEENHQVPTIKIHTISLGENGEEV
Experimental: To evaluate in radioligand binding assays the activity of compounds of the invention, rat adrenergic α1A receptor obtained from Wistar Rat submaxillary glands (Michel, A. et al, Br. J. Pharmacol. 98:883, 1989) in a modified Tris-HCl buffer (50 mM Tris-HCl buffer, pH 7.4, 0.5 mM EDTA) was used. Compounds of the invention were incubated with 0.25 nM [^3H]Prazosin for 60 min at 25° C. Non-specific binding was estimated in the presence of 10 μM phentolamine Receptor proteins were filtered and washed, the filters were then counted to determine [^3H]Prazosin specifically bound. […] Compounds of the invention were tested in this biochemical assay and percent inhibition of specific binding was determined.

[3] = target: T3, human recombinant serotonin (5-Hydroxytryptamine) 5-HT2C receptor (Homo sapiens, UniProt P28335); assay: Serotonin 5-HT2C radioligand binding ([3H]Mesulergine); conditions: compound at 0.1 μM; read-out: Inhibition of ligand binding, Serotonin 5-HT2C (percent inhibition of specific binding)
T3 construct: expressed in transfected cells; host or cells: CHO-K1
T3 sequence (P28335 33-458): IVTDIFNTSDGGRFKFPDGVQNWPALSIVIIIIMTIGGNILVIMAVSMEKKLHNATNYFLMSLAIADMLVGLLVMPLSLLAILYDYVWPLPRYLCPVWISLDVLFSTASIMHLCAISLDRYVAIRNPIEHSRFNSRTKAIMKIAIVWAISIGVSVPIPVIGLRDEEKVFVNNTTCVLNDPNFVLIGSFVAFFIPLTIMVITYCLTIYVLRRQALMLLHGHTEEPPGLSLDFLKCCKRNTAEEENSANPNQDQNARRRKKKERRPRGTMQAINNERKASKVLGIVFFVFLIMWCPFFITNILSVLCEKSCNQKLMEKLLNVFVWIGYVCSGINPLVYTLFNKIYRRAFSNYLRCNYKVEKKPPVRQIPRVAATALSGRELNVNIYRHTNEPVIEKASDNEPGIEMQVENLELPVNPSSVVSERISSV
Experimental: Compounds of the invention were incubated with 1 nM [^3H]Mesulergine for 60 min at 25° C. Non-specific binding was estimated in the presence of 1 μM Mianserin. Receptor proteins were filtered and washed, the filters were then counted to determine [^3H]Mesulergine specifically bound.

[4] = target: T4, human recombinant serotonin (5-Hydroxytryptamine) 5-HT6 receptor (Homo sapiens, UniProt P50406); assay: Serotonin 5-HT6 radioligand binding ([3H]LSD); conditions: compound at 0.1 μM; for inhibition at 0.1 µM: read-out: Inhibition of ligand binding, Serotonin 5-HT6 (percent inhibition of specific binding)
T4 construct: expressed in transfected cells; host or cells: HeLa
Source text: Receptor proteins were filtered and washed, the filters were then counted to determine [3H]LSD specifically bound.

[5] = target: T5, human recombinant serotonin (5-Hydroxytryptamine) 5-HT2A receptor (Homo sapiens, UniProt P28223); assay: Serotonin 5-HT2A radioligand binding ([3H]Ketanserin); conditions: read-out: Inhibition of ligand binding, Serotonin 5-HT2A (percent inhibition of specific binding)
T5 construct: expressed in transfected cells; host or cells: CHO-K1
Experimental: Compounds of the invention were incubated with 0.5 nM [^3H]Ketanserin for 60 min at 25° C. Non-specific binding was estimated in the presence of 1 μM Mianserin. Receptor proteins were filtered and washed, the filters were then counted to determine [^3H]Ketanserin specifically bound.

[6] = target: T6, human recombinant dopamine D2L receptor (Homo sapiens, UniProt P14416); assay: Dopamine D2L radioligand binding ([3H]Spiperone); conditions: 0.16 nM [3H]Spiperone; for inhibition at 1 µM: read-out: Dopamine D2L (1 μM), percent inhibition of specific binding, compound at 1 μM
T6 construct: expressed in transfected cells; host or cells: CHO
Experimental: Non-specific binding was estimated in the presence of 10 μM Haloperidol. Receptor proteins were filtered and washed, the filters were then counted to determine [^3H]Spiperone specifically bound.

[7] = target: T7, human recombinant serotonin (5-Hydroxytryptamine) 5-HT5A receptor (Homo sapiens, UniProt P47898); assay: Serotonin 5-HT5A radioligand binding ([3H]LSD); conditions: compound at 0.1 μM
T7 construct: expressed in transfected cells; host or cells: CHO-K1
Experimental: Compounds of the invention were incubated with 1.7 nM [^3H]Lysergic acid diethylamide (LSD) for 60 min at 37° C. […] Receptor proteins were filtered and washed, the filters were counted to determine [^3H]LSD specifically bound.

[8] = target: T8, human recombinant serotonin (5-Hydroxytryptamine) 5-HT7 receptor (Homo sapiens, UniProt P34969); assay: Serotonin 5-HT7 radioligand binding ([3H]LSD); conditions: compound at 0.1 μM; for inhibition at 0.1 µM: read-out: Inhibition of ligand binding, Serotonin 5-HT7 (percent inhibition of specific binding)
T8 construct: expressed in transfected cells; host or cells: CHO
Experimental: Lysergic acid diethylamide (LSD) for 120 min. at 25° C. […] Receptor proteins were filtered and washed, the filters were then counted to determine [^3H]LSD specifically bound.

[9] = target: T9, human recombinant histamine H1 receptor (Homo sapiens, UniProt P35367); assay: Histamine H1 radioligand binding ([3H]Pyrilamine); conditions: read-out: Histamine H1 Binding (1 μM), percent inhibition of specific binding; compound at 1 μM; 1.2 nM [3H]Pyrilamine
T9 construct: expressed in transfected cells; host or cells: CHO-K1
Experimental: To evaluate in radioligand binding assays the activity of compounds of the invention, human recombinant histamine H1 receptor expressed in Chinese hamster ovary (CHO) K1 cells (De Backer, M. et al, Biochem. Biophys. Res. Comm. 197(3):1601, 1993) in a modified Tris-HCl buffer (50 mM Tris-HCl, pH 7.4, 2 mM MgCl2, 100 mM NaCl, 250 mM Sucrose) was used. […] Non-specific binding was estimated in the presence of 1 μM Pyrilamine. Receptor proteins were filtered and washed, the filters were then counted to determine [^3H]Pyrilamine specifically bound. […] Biochemical assay results are presented as the percent inhibition of specific binding in Table 2.

T9 sequence (P35367 whole entry): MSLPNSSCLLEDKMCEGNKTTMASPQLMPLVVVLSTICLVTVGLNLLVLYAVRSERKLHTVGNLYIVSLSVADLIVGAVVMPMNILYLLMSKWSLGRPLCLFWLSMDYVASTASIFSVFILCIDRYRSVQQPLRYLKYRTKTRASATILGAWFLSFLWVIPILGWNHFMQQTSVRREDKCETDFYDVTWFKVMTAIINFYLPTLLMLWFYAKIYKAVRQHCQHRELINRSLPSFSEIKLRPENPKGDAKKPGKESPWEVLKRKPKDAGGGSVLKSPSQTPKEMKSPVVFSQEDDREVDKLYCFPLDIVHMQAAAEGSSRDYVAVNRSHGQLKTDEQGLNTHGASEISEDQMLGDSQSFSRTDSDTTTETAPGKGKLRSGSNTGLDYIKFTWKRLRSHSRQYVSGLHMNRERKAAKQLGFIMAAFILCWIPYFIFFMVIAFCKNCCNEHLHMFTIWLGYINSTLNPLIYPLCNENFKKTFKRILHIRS
T5 sequence (P28223 whole entry): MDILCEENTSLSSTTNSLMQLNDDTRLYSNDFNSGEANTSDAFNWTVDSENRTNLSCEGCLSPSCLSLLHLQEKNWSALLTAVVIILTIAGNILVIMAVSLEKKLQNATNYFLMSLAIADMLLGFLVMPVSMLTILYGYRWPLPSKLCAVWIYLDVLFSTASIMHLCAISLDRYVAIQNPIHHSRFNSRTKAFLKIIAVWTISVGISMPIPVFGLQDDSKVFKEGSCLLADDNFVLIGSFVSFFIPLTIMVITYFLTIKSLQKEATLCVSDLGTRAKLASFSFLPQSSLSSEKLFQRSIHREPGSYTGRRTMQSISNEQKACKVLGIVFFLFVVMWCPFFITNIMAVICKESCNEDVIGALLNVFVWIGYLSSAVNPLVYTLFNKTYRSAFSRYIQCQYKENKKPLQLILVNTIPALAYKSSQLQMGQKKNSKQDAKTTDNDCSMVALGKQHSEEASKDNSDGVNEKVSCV
T4 sequence (P50406 whole entry): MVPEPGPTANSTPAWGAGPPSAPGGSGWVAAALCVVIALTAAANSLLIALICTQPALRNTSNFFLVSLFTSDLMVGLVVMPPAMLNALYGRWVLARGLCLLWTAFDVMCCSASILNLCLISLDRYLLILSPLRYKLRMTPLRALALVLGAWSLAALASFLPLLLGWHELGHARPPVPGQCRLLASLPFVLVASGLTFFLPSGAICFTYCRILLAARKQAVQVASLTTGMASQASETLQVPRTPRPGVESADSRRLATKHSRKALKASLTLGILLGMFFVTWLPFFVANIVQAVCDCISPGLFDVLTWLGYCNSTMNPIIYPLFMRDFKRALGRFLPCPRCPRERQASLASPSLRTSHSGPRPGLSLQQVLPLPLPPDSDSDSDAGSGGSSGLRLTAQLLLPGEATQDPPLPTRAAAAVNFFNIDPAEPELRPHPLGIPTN
T8 sequence (P34969 whole entry): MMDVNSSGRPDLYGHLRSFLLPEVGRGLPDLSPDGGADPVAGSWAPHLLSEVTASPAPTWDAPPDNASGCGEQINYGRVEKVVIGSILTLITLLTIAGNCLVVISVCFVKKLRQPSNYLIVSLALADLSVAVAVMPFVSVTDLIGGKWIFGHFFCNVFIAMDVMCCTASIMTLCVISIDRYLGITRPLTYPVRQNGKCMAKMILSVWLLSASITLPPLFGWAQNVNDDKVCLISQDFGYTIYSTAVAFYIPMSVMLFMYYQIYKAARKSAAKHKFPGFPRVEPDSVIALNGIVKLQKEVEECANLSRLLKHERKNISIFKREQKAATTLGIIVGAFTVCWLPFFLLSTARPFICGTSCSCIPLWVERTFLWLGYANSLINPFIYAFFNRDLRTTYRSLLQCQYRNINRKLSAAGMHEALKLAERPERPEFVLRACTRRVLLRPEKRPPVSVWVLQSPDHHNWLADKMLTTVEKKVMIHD
T6 sequence (P14416 whole entry): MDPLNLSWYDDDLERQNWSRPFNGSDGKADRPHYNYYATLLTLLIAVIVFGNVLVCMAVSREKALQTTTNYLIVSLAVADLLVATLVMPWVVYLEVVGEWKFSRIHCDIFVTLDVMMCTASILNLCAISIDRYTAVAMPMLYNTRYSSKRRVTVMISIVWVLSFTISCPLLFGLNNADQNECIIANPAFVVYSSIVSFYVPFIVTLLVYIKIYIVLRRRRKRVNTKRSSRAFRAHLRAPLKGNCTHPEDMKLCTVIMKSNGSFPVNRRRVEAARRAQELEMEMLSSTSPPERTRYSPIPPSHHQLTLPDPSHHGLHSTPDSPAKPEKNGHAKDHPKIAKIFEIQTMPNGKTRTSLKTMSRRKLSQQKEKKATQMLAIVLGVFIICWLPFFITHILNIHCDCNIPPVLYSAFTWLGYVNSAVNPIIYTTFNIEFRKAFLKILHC
T7 sequence (P47898 whole entry): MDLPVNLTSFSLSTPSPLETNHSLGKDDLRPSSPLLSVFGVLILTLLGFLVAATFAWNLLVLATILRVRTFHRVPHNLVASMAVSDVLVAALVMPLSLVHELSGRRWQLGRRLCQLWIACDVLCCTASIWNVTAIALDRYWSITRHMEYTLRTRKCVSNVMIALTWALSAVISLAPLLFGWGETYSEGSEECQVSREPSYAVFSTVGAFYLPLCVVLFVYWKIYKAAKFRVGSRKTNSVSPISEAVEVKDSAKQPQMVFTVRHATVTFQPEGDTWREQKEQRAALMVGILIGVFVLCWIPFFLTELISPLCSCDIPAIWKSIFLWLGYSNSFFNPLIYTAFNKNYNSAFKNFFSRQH

Row | SMILES | inhibition at 0.1 µM [1] [%] | inhibition at 0.1 µM [2] [%] | inhibition at 0.1 µM [3] [%] | Inhibition of ligand binding, Serotonin 5-HT6 (percent inhibition of specific binding) [4] [%] | inhibition at 0.1 µM [5] [%] | inhibition at 1 µM [6] [%] | Inhibition of ligand binding, Serotonin 5-HT5A (percent inhibition of specific binding) [7] [%] | Inhibition of ligand binding, Serotonin 5-HT7 (percent inhibition of specific binding) [8] [%] | inhibition at 1 µM [9] [%] | inhibition at 0.1 µM [4] [%] | inhibition at 0.1 µM ([5]; compound at 0.1 μM) [%] | inhibition at 0.1 µM ([6]; read-out: Dopamine D2L (0.1 μM), percent inhibition of specific binding, compound at 0.1 μM) [%] | inhibition at 0.1 µM ([7]; read-out: Inhibition of ligand binding, Serotonin 5-HT5A (percent inhibition of specific binding)) [%] | inhibition at 0.1 µM [8] [%]
1 | Cc1ccc2c(c1)c1c(n2-c2ccccc2-c2ccc(O)nc2)CCN(C)C1 [Compound No. 80, 5-(2-(2,8-dimethyl-3,4-dihydro-1H-pyrido[4,3-b]indol-5(2H)-yl)phenyl)pyridin-2-ol] | -6 | 15 | 11 | −1 | 28 | 2 | 25 | 41 | 28 |  |  |  |  | 
2 | Cc1cc(C)c2c(c1)c1c(n2-c2cscc2-c2ccncc2)CCN(C)C1 [Compound No. 149] | 2 | 14 |  |  |  |  |  |  | -5 | 93 | 45 | 5 | -13 | 11
3 | Cc1ccc2c(c1)c1c(n2-c2ccoc2)CCN(C)C1 [Compound 15, 5-furan-3-yl-2,8-dimethyl-2,3,4,5-tetrahydro-1H-pyrido[4,3-b]indole] | 7 | 28 | 77 |  |  | 19 |  |  | 80 | 51 | 72 |  |  | 57
4 | Cc1ccc2c(c1)c1c(n2-c2cccs2)CCN(C)C1 [Compound 16, 2,8-dimethyl-5-thiophen-2-yl-2,3,4,5-tetrahydro-1H-pyrido[4,3-b]indole] | 17 | 7 | 89 |  |  | 49 |  |  | 86 | 74 | 94 |  |  | 62
